In article PMC7845544 (Frontiers in Pharmacology, 2021):
“And” between values parts separate entries of the source, which are not always exact repeats. Identical values can stand only once. “Also recorded” adds a separate entry of the source.

What was measured:
Sprague Dawley rats = test system: Sprague Dawley rats
Protocol: Toxicological evaluations were performed in both rat and dog as the second species according to the guidance from FDA. […] The animals were administered vehicle or 30, 100, 300 and 1,000 mg/kg by oral gavage for 14 days. […] Separate groups of animals (n = 6/sex/dose) were used for toxicokinetic (TK) analysis. On day 1 and day 14 of drug administration, serial blood samples were collected from 5 min to 24 h from the TK group animals for analytical measurement of the compound. Blood samples were placed on ice immediately after collection and were centrifuged at approximately 8,000 rpm for 6 min at 2–8°C and the resulting plasma were separated and stored in pre-labeled plastic tubes or vials. The amount of compound in the plasma samples were measure using an HPLC method. […] Evaluated parameters included; mortality, clinical signs, body weight, food consumption, urinalysis, hematology, clinical chemistry, gross post mortem examinations, organ weights and histopathological evaluations of selected tissues. At the end of 14-days of treatment, animals were sacrificed and blood collected for serum chemistry, coagulation and hematological analysis, organ weighed and histological analysis performed in select tissue from control and high dose group.

mammalian cell = assay: Chromosomal aberrations, micronucleus test (MNT); format: cell-based
Monkey pharmacokinetics = format: in vivo; details: data not shown
Cl-channel (GABA-gated) = details: dose response
55 targets = assay: Single concentration Cerep profile (Eurofins); format: binding; details: 10 uM
Dog pharmacokinetics = format: in vivo; details: 10 mg/kg
hERG = hERG (Homo sapiens, UniProt Q12809); assay: hERG channel inhibition (Cyprotex); format: biochemical
211 kinases = assay: Kinase profile (Eurofins); format: biochemical
beagle dogs = assay: Serum thyroid hormones in beagle dogs treated for 14 days; format: in vivo
Protocol: Male and female beagle dogs were received from Beijing Marshall Biotechnology Co., Ltd (Beijing, China) and group housed at Covance (Shanghai, China), except for 5 h each day in stainless steel cages for study-related procedures. […] Blood samples (approximately 1.0 ml) were collected for thyroid hormone analysis on Days 0, prior to dosing, 24 h post dose (prior to second dose on Day 2) and once prior to dosing on Day 14. Blood was collected into serum separator tubes (without anticoagulant), allowed to clot at room temperature, and centrifuged for approximately 10 min in a refrigerated centrifuge at approximately at 3,500 g within 2 h of collection. Serum was harvested and placed in a freezer for subsequent thyroid hormone measurement.

NK2 receptor = details: dose response
Adenosine A3 receptor = details: dose response
immature B6C3F1 mice = assay: Superovulation assay in immature mice; format: in vivo, mouse; details: 30 and 100 mg/kg, mice receiving low dose rec-hFSH (0.15 IU)
Protocol: Immature SD rats and B6C3F1 mice (both 18–21 day old females) were purchased from Charles-River laboratories (Wilmington, MA, United States and Shanghai, China). All animals were treated in accordance to Chempartner (Shanghai, China) or Embryotech (Haverhill, MA, United States) IACUC approved animal protocols. The animals were provided water and food ad libitum and housed under 12 h dark and 12 h light schedules.
Immature rats and mice were used to investigate the ability of the small molecules to induce follicular development and support ovulation as described elsewhere ([Steelman and Pohley, 1953]) with modifications ([Sriraman et al., 2014]). […] […] The isolated COC’s were treated with hyaluronidase and the total number of ovulated oocytes was determined microscopically.
[…] […] In some experiments, serum was collected from the animals prior to the ovulatory dose of hCG to determine estradiol levels. Plasma concentrations of FSHR-AA were measured during superovulation assays, except for experiments where plasma was collected for estradiol measurements.

CYP3A4 = CYP3A4 (Homo sapiens, UniProt P08684); assay: Cytochrome P450 inhibition; format: in vitro ADME; details: b51 words it as 52% of vehicle
Solubility in PBS = format: physicochemical; details: PBS (pH 7.4)
[1] = female dog, 30 mg/Kg, 0h predosing
[2] = female dog, 100 mg/Kg, 0h predosing
[3] = female dog, 1000 mg/Kg, 0h predosing
[4] = male dog, 30 mg/Kg, 0h predosing
[5] = male dog, 100 mg/Kg, 0h predosing
[6] = male dog, 1000 mg/Kg, 0h predosing

Sequence of hERG (Q12809 whole entry): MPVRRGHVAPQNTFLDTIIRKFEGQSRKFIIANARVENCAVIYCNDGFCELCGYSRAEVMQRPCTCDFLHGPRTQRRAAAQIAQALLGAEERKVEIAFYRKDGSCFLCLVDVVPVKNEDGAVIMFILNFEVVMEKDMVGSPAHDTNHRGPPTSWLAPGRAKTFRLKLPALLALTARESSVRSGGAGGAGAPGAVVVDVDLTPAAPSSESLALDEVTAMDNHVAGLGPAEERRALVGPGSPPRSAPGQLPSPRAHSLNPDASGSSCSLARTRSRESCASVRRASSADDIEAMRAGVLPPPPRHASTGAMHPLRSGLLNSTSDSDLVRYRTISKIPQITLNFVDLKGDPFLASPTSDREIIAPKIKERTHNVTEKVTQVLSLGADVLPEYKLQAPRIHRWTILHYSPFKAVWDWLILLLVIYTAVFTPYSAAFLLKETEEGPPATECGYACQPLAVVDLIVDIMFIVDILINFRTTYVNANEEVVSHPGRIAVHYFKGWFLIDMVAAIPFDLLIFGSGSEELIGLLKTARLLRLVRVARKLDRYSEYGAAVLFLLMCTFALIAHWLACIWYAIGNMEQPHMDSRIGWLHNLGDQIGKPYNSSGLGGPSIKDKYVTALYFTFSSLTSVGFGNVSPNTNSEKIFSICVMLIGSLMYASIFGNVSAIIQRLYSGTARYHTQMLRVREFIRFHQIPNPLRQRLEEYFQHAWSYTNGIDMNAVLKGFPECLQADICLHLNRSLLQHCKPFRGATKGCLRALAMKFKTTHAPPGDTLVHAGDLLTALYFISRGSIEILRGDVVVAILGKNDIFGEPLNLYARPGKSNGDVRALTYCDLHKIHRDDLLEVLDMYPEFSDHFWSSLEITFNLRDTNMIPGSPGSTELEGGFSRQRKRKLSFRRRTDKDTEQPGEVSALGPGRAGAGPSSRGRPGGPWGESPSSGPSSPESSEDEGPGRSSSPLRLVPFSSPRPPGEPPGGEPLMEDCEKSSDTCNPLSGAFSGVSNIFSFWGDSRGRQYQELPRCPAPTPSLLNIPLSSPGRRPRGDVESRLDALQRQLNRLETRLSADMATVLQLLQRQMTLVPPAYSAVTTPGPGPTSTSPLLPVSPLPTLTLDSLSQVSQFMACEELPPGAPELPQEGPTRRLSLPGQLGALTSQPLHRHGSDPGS
Sequence of CYP3A4 (P08684 whole entry): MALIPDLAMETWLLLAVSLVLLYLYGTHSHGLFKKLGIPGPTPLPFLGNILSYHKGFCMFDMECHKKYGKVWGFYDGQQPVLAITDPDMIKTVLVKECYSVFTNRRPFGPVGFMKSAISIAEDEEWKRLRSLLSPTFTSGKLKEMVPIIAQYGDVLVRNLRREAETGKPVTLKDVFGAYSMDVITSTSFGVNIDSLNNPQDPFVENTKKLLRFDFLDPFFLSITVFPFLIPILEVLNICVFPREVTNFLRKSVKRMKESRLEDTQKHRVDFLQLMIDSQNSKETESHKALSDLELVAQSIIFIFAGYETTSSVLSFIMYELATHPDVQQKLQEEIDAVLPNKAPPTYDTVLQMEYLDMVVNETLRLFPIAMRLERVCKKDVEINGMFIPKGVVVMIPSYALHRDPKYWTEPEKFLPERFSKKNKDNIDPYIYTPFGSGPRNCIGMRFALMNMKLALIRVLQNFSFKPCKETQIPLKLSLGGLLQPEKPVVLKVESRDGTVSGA

## COc1cc2c(cc1-c1cnn(CCO)c1)-c1c(c(C(=O)N(C)C(C)(C)C)nn1-c1cc(Cl)cc(Cl)c1)CO2 [TOP5300]
Sprague Dawley rats; rat
  margin of safety between first significant efficacy (5 mg/kg) and NOAEL (300 mg/kg): 60 fold
Sprague Dawley rats; rat, in vivo
  accumulation after 14-days repeated dosing: not observed
Sprague Dawley rats; rat, in vivo, po
  NOAEL, female rat: 300 mg/kg
  NOAEL, male rat: 1,000 mg/kg
  Tmax, Day1: 2 to 8 h
  Tmax, Day14: 2 to 8 h
Sprague Dawley rats; up to 1,000 mg/kg, 14 days
  mortality, rat: all animals survived the duration of the study
Mammalian cell
  Micronucleus Test (MNT) result: N e g a tiv e; also recorded: inactive
Monkey pharmacokinetics
  half-life, monkey PK: 12.1 h
Cl-channel (GABA-gated)
  selectivity / safety margin compared to FSHR, Cl-channel (GABA-gated): over 400 fold
55 targets
  number of targets < 60% inhibition: 52 targets
  number of targets > 60% inhibition: 3 targets
Dog pharmacokinetics
  Dog PK AUC: 8,719 ng*h/ml
  Dog PK T1/2: 9 h and 9.4 h
Dog pharmacokinetics; oral bioavailability
  Dog PK F%: 32%
hERG
  hERG assay result: inactive
hERG; 10 uM
  hERG channel inhibition @ 10 uM: 16 % inhibition
211 kinases
  Kinase profile @ 10 uM: N o si g ni fi cant i nhi bi ti on any; also recorded: failed to inhibit activity
Beagle dogs; dog, 14 days
  TSH, free T3 or free T4 concentrations over the course of treatment: No significant difference
Beagle dogs; [1]
  Free T3, fold change over vehicle group: 0.9 fold
  Free T4, fold change over vehicle group: 1.1 fold
  TSH, fold change over vehicle group: 1.2 fold
Beagle dogs; female dog, 30 mg/Kg, 24h
  Free T3, fold change over vehicle group: 0.8 fold
  Free T4, fold change over vehicle group: 1.1 fold
  TSH, fold change over vehicle group: 0.9 fold
Beagle dogs; female dog, 30 mg/Kg, Day 14
  Free T3, fold change over vehicle group: 1.0 fold
  Free T4, fold change over vehicle group: 0.8 fold
  TSH, fold change over vehicle group: 1.1 fold
Beagle dogs; [2]
  Free T3, fold change over vehicle group: 1.0 fold
  Free T4, fold change over vehicle group: 1.2 fold
  TSH, fold change over vehicle group: 1.3 fold
Beagle dogs; female dog, 100 mg/Kg, 24h
  Free T3, fold change over vehicle group: 0.9 fold
  Free T4, fold change over vehicle group: 1.1 fold
  TSH, fold change over vehicle group: 1.0 fold
Beagle dogs; female dog, 100 mg/Kg, Day 14
  Free T3, fold change over vehicle group: 1.1 fold
  Free T4, fold change over vehicle group: 1.1 fold
  TSH, fold change over vehicle group: 1.1 fold
Beagle dogs; [3]
  Free T3, fold change over vehicle group: 1.1 fold
  Free T4, fold change over vehicle group: 1.0 fold
  TSH, fold change over vehicle group: 1.2 fold
Beagle dogs; female dog, 1000 mg/Kg, 24h
  Free T3, fold change over vehicle group: 0.9 fold
  Free T4, fold change over vehicle group: 0.9 fold
  TSH, fold change over vehicle group: 0.8 fold
Beagle dogs; female dog, 1000 mg/Kg, Day 14
  Free T3, fold change over vehicle group: 1.2 fold
  Free T4, fold change over vehicle group: 0.9 fold
  TSH, fold change over vehicle group: 0.8 fold
Beagle dogs; [4]
  Free T3, fold change over vehicle group: 1.3 fold
  Free T4, fold change over vehicle group: 1.0 fold
  TSH, fold change over vehicle group: 0.8 fold
Beagle dogs; male dog, 30 mg/Kg, 24h
  Free T3, fold change over vehicle group: 1.3 fold
  Free T4, fold change over vehicle group: 1.0 fold
  TSH, fold change over vehicle group: 0.9 fold
Beagle dogs; male dog, 30 mg/Kg, Day 14
  Free T3, fold change over vehicle group: 1.3 fold
  Free T4, fold change over vehicle group: 1.0 fold
  TSH, fold change over vehicle group: 1.0 fold
Beagle dogs; [5]
  Free T3, fold change over vehicle group: 1.1 fold
  Free T4, fold change over vehicle group: 0.9 fold
  TSH, fold change over vehicle group: 0.8 fold
Beagle dogs; male dog, 100 mg/Kg, 24h
  Free T3, fold change over vehicle group: 1.1 fold
  Free T4, fold change over vehicle group: 0.8 fold
  TSH, fold change over vehicle group: 0.9 fold
Beagle dogs; male dog, 100 mg/Kg, Day 14
  Free T3, fold change over vehicle group: 1.1 fold
  Free T4, fold change over vehicle group: 0.9 fold
  TSH, fold change over vehicle group: 1.0 fold
Beagle dogs; [6]
  Free T3, fold change over vehicle group: 1.0 fold
  Free T4, fold change over vehicle group: 0.9 fold
  TSH, fold change over vehicle group: 0.7 fold
Beagle dogs; male dog, 1000 mg/Kg, 24h
  Free T3, fold change over vehicle group: 0.9 fold
  Free T4, fold change over vehicle group: 0.9 fold
  TSH, fold change over vehicle group: 0.9 fold
Beagle dogs; male dog, 1000 mg/Kg, Day 14
  Free T3, fold change over vehicle group: 1.0 fold
  Free T4, fold change over vehicle group: 1.0 fold
  TSH, fold change over vehicle group: 0.8 fold
NK2 receptor
  selectivity / safety margin compared to FSHR, NK2(h): over 400 fold
Adenosine A3 receptor
  selectivity / safety margin compared to FSHR, A3(h): over 400 fold
Immature B6C3F1 mice
  follicular growth and ovulation: dose-dependent increases in follicular growth and ovulation

## COc1cc(C(N)=O)cc(-c2cc3c(cc2OC)OCc2c(C(=O)N(C)C(C)(C)C)nn(-c4cc(Cl)cc(Cl)c4)c2-3)n1 [TOP5668]
CYP3A4
  CYP inh @ 10 µM, CYP3A4 (midazolam): CYP3A4 (midazolam) = 50.6%
Solubility in PBS
  fold more soluble than TOP5300: 14 fold
